Paper PMC12169669, “Regio- and Stereoselective Synthesis of Nitro-fatty Acids as NRF2 Pathway Activators Working under Ambient or Hypoxic Conditions” (Journal of Medicinal Chemistry, 2025)

Assay: Cytotoxicity assay (sulforhodamine B, SRB)
Format: cell-based
Settings: mouse, mouse embryonic fibroblasts (MEFs; STO)
Protocol: For cytotoxicity experiments, mouse embryonic fibroblasts (MEFs; STO, 86032003, Sigma-Aldrich) were cultured in DMEM (41966-029, Thermo Fisher Scientific) + 5% FBS and were seeded at 10,000 cells per well in a 96-well plate and allowed to adhere for 8 h under atmospheric conditions. Plates were then placed in incubators with the specified oxygen concentrations (21%, 4%, or 1%) and incubated overnight. The following day, the medium was replaced with fresh medium (+5% FBS) adjusted to match the target oxygen concentrations and containing the test compounds (1–100 μM). After 24 h of incubation, adherent cells were stained using a modified sulforhodamine B (SRB) assay as described in. SRB was obtained from Sigma-Aldrich (S1402). Briefly, the medium was aspirated, and cells were fixed with 10% cold trichloroacetic acid. After washing twice with distilled water, the cells were stained with 0.1% SRB dissolved in 1% acetic acid. The cells were then washed 3–4 times with 1% acetic acid and allowed to dry. The stain was solubilized with 10 mM unbuffered TRIS base, and absorbance was measured at 540 nm (Infinite M200 Pro, Tecan, Austria). The cell viability of treated samples was calculated as a percentage of nontreated controls, and IC50 values were determined (see Statistics). According to the IC50 values, a nontoxic 2 μM concentration of NO2FAs was used in further in vitro experiments. For detailed results, see Supporting Information Figure S1 and Table S3. Values are presented as arithmetic means ± standard deviations (SD), unless otherwise specified. Half-maximal inhibitory concentration (IC50) values were calculated using four-parameter logistic regression (dose vs response). For Western blot analyses, one-way ANOVA with Dunnett’s multiple comparisons test was performed against control samples. The significance level was set at p < 0.05. Statistical analyses were conducted using GraphPad Prism v10.4 (GraphPad Software, www.graphpad.com). Statistical methods and the number of experiments are indicated in the figure legends. page 9: Supporting information S9 Cytotoxicity of tested NO2FA derivatives (Figure S1) 1 10 100 0 50 100 150 21% O2 Concentration (µM) % of control 1 10 100 0 50 100 150 4% O2 Concentration (µM) % of control 1 10 100 0 50 100 150 1% O2 Concentration (µM) % of control 10-NO2OA 9-NO2OA 10-NO2LA 9-NO2cLA 10-NO2SA A B C Figure S 1. Cytotoxicity of tested NO2FA derivatives. Mouse embryonic fibroblasts (MEFs) were cultured under varying oxygen conditions (21, 4, and 1%) and treated for 24 hours with the tested NO₂FAs, after which adherent cells were stained with sulforhodamine B. Results are presented as a percentage of control cells across different oxygen culture conditions (A–C). IC₅₀ values were determined from dose-response curves (see Supplementary Table S3). Data are expressed as mean ± SD from three independent experiments (n = 3). (1 picture or pasted object on this page, not shown here) page 11: Supporting information Calculated IC50 values of tested NO2FA derivatives (Table S3) Table S 3. Calculated IC50 values of tested NO2FA derivatives. IC 21% O2 4% O2 1% O2 50 Value SEM Value SEM Value SEM 10-NO2OA 6.28 0.19 5.74 0.20 8.19 0.21 9-NO2OA 9.47 0.57 7.75 0.54 6.93 0.32 10-NO2LA 11.78 0.41 11.17 0.26 13.79 1.02 9-NO2cLA 18.03 1.96 17.19 2.26 14.31 1.82 10-NO2SA ≈100 >100 >100 IC₅₀ values were derived from dose-response curves using four-parameter logistic regression across different oxygen culture conditions. Data are presented as mean and SEM values from three independent experiments (n = 3). The IC₅₀ values calculated for cultures in 21% oxygen indicate an increasing cytotoxic potential in the order: 10-NO₂OA > 9-NO₂OA > 10-NO₂LA > 9-NO₂cLA. […] In 1% oxygen, the order of cytotoxic potential shifted slightly to 9-NO₂OA > 10-NO₂OA > 10-NO₂LA > 9-NO₂cLA. However, differences in IC₅₀ values across the oxygen conditions for each NO₂FA derivative ranged from ca. 1 to 3 µM. […]

CCCCCCCC/C=C(\CCCCCCCC(=O)O)[N+](=O)[O-] [9-NO2OA, (9E)-9-Nitro-oleic Acid]
IC50 at 24 h (1% O2): 6.93 ± 0.32 µM | IC50 at 24 h (4% O2): 7.75 ± 0.54 µM | IC50 at 24 h (21% O2): 9.47 ± 0.57 µM

CCCCCC/C=C/C=C(\CCCCCCCC(=O)O)[N+](=O)[O-] [9-NO2cLA, (9E,11E)-9-Nitro Conjugated Linoleic Acid]
IC50 at 24 h (1% O2): 14.3 ± 1.82 µM | IC50 at 24 h (4% O2): 17.2 ± 2.26 µM | IC50 at 24 h (21% O2): 18 ± 1.96 µM

CCCCC/C=C\C/C(=C\CCCCCCCC(=O)O)[N+](=O)[O-] [10-NO2LA, (9E,12Z)-10-Nitro Linoleic Acid]
IC50 at 24 h (1% O2): 13.8 ± 1.02 µM | IC50 at 24 h (4% O2): 11.2 ± 0.26 µM | IC50 at 24 h (21% O2): 11.8 ± 0.41 µM

CCCCCCCC/C(=C\CCCCCCCC(=O)O)[N+](=O)[O-] [10-NO2OA, (9E)-10-Nitro-oleic Acid]
IC50 at 24 h (1% O2): 8.19 ± 0.21 µM | IC50 at 24 h (4% O2): 5.74 ± 0.2 µM | IC50 at 24 h (21% O2): 6.28 ± 0.19 µM

CCCCCCCCC(CCCCCCCCC(=O)O)[N+](=O)[O-] (stereo not shown) [10-NO2SA, 10-Nitro Stearic acid]
IC50 at 24 h (1% O2): > 100 µM | IC50 at 24 h (4% O2): > 100 µM | IC50 at 24 h (21% O2): ~100 µM | IC50 at 24 h (under all three oxygen conditions (21, 4, 1%)): ≥ 100 µM
